Measurements reported in ChEMBL document CHEMBL1121424, “Orally active cephalosporins and penicillins” (J Med Chem, 1980).
In brackets after ≈: the same amount, converted by molar mass.

Experiments:
Format in all cases: functional
[1] = tested on: Staphylococcus aureus; test: Tested for inhibition of visible growth of Staphylococcus aureus
[2] = tested on: Proteus mirabilis; test: Tested for inhibition of visible growth of Proteus mirabilis
[3] = tested on: Enterococcus faecalis; test: Tested for inhibition of visible growth of Streptococcus faecalis
[4] = tested on: Klebsiella pneumoniae; test: Tested for inhibition of visible growth of Klebsiella pneumoniae
[5] = tested on: Staphylococcus aureus; test: Tested for inhibition of visible growth of Staphylococcus aureus, benzyl-penicillin sensitive
[6] = Tested for inhibition of visible growth of Salmonella schottmuelleri
[7] = tested on: Escherichia coli; test: Tested for inhibition of visible growth of Escherichia coli
[8] = tested on: Streptococcus pyogenes; test: Tested for inhibition of visible growth of Streptococcus pyogenes
[9] = tested on: Streptococcus pneumoniae; test: Tested for inhibition of visible growth of Streptococcus pneumoniae
[10] = tested on: Enterobacter cloacae; test: Tested for inhibition of visible growth of Enterobacter cloacae
[11] = tested on: Klebsiella aerogenes; test: Tested for inhibition of visible growth of Enterobacter aerogenes

| Compound | MIC [1] [µg/mL] | MIC [2] [µg/mL] | MIC [3] [µg/mL] | MIC [4] [µg/mL] | MIC [5] [µg/mL] | MIC [6] [µg/mL] | MIC [7] [µg/mL] | MIC [8] [µg/mL] | MIC [9] [µg/mL] | MIC [10] [µg/mL] | MIC [11] [µg/mL] |
| --- | --- | --- | --- | --- | --- | --- | --- | --- | --- | --- | --- |
| CC1=C(C(=O)O)N2C(=O)C(NC(=O)C(N)c3cccc4c3OCO4)C2SC1 (stereo unspecified) | 6.2 (≈ 15.8 µM) | > 200 | > 200 | > 200 | 3.1 (≈ 7.92 µM) | 100 (≈ 255 µM) | > 200 | 0.4 (≈ 1.02 µM) | 6.2 (≈ 15.8 µM) | > 200 | > 200 |
| N[C@H](C(=O)NC1C(=O)N2C(C(=O)O)=C(CSc3c[nH]nn3)CSC12)c1ccc2c(c1)OCO2 (stereo partly specified) | – | > 50 | > 100 | > 50 | 6.2 (≈ 12.6 µM) | 50 (≈ 102 µM) | > 50 | 1.6 (≈ 3.26 µM) | – | – | – |
| Cc1nnc(SCC2=C(C(=O)O)N3C(=O)C(NC(=O)[C@@H](N)c4ccc5c(c4)OCO5)C3SC2)s1 (stereo partly specified) | – | > 100 | > 100 | > 100 | 6.2 (≈ 11.9 µM) | 50 (≈ 95.9 µM) | > 100 | 0.8 (≈ 1.53 µM) | 0.8 (≈ 1.53 µM) | – | – |
| CC1=C(C(=O)O)N2C(=O)C(NC(=O)[C@@H](N)c3ccc4c(c3)OCO4)C2SC1 (stereo partly specified) | – | > 100 | > 100 | > 100 | 25 (≈ 63.9 µM) | > 100 | > 100 | 12.5 (≈ 31.9 µM) | 50 (≈ 128 µM) | – | – |
| CC(=O)OCC1=C(C(=O)O)N2C(=O)C(NC(=O)[C@H](N)c3ccc4c(c3)CCO4)C2SC1 (stereo partly specified) | 3.1 (≈ 6.93 µM) | 50 (≈ 112 µM) | 50 (≈ 112 µM) | 6.2 (≈ 13.9 µM) | 0.8 (≈ 1.79 µM) | 3.1 (≈ 6.93 µM) | 25 (≈ 55.9 µM) | 0.1 (≈ 0.223 µM) | 0.1 (≈ 0.223 µM) | 100 (≈ 223 µM) | 100 (≈ 223 µM) |
| CC1=C(C(=O)O)N2C(=O)C(NC(=O)C(N)c3ccc4c(c3)OCCO4)C2SC1 (mixture of isomers) | 6.2 | > 200 | > 200 | 200 | 0.8 | 100 | 200 | 0.8 | 1.6 | > 200 | > 200 |
| CC1=C(C(=O)O)N2C(=O)C(NC(=O)C(N)c3ccc4c(c3)CCO4)C2SC1 (racemic) | 3.1 (≈ 7.96 µM) | > 200 | > 200 | 50 (≈ 128 µM) | 1.6 (≈ 4.11 µM) | 50 (≈ 128 µM) | 100 (≈ 257 µM) | 0.4 (≈ 1.03 µM) | 3.1 (≈ 7.96 µM) | > 200 | > 200 |
| CC(=O)OCC1=C(C(=O)O)N2C(=O)C(NC(=O)C(N)c3cccc4c3OCO4)C2SC1 (racemic) | 3.1 (≈ 6.9 µM) | 100 (≈ 222 µM) | 200 (≈ 445 µM) | 50 (≈ 111 µM) | 3.1 (≈ 6.9 µM) | 25 (≈ 55.6 µM) | 100 (≈ 222 µM) | 0.2 (≈ 0.445 µM) | 0.2 (≈ 0.445 µM) | > 200 | > 200 |
| CC(=O)OCC1=C(C(=O)O)N2C(=O)C(NC(=O)C(N)c3ccc4c(c3)OCO4)C2SC1 (racemic) | 6.2 (≈ 13.8 µM) | 100 (≈ 222 µM) | 200 (≈ 445 µM) | 25 (≈ 55.6 µM) | 3.1 (≈ 6.9 µM) | 12.5 (≈ 27.8 µM) | 50 (≈ 111 µM) | 0.2 (≈ 0.445 µM) | 0.4 (≈ 0.89 µM) | > 200 | > 200 |
| CC(=O)OCC1=C(C(=O)O)N2C(=O)C(NC(=O)C(O)c3ccc4c(c3)OCO4)C2SC1 (racemic) | 3.1 (≈ 6.88 µM) | 50 (≈ 111 µM) | > 200 | 25 (≈ 55.5 µM) | 0.8 (≈ 1.78 µM) | 6.2 (≈ 13.8 µM) | 25 (≈ 55.5 µM) | 0.1 (≈ 0.222 µM) | 0.1 (≈ 0.222 µM) | > 200 | > 200 |
| CC(=O)OCC1=C(C(=O)O)N2C(=O)C(NC(=O)C(O)c3ccc4c(c3)CCO4)C2SC1 (racemic) | 3.1 (≈ 6.91 µM) | 50 (≈ 111 µM) | > 200 | 50 (≈ 111 µM) | 0.8 (≈ 1.78 µM) | 12.5 (≈ 27.9 µM) | 50 (≈ 111 µM) | 0.1 (≈ 0.223 µM) | 0.1 (≈ 0.223 µM) | > 200 | > 200 |
